This passage reports IC50 results from PMC7998669, “7-(2-Anilinopyrimidin-4-yl)-1-benzazepin-2-ones Designed by a “Cut and Glue” Strategy Are Dual Aurora A/VEGF-R Kinase Inhibitors” (Molecules, 2021).

Common to all, as to test: radiometric 33PanQinase protein kinase assay
What all share (assay type): biochemical
Common to all, as to details: 1 µM ATP

One experiment deals with T1, CDK2/CycA (Homo sapiens, UniProt P24941).
T1 construct: host or cells: Sf9 (baculovirus)

Another experiment addresses T2, CDK4/CycD1 (Homo sapiens, UniProt P11802).
T2 construct: host or cells: Sf9 (baculovirus)

The target of another experiment is T3, EGF-R (Homo sapiens, UniProt P00533).
T3 construct: host or cells: Sf9 (baculovirus)

Another experiment deals with T4, IGF1-R (Homo sapiens, UniProt P08069).
T4 construct: host or cells: Sf9 (baculovirus)

For the next experiment, the target named is T5, MET (Homo sapiens, UniProt P08581).
T5 construct: host or cells: Sf9 (baculovirus)

In the next experiment the target is T6, TIE2 (Homo sapiens, UniProt Q02763).
T6 construct: host or cells: Sf9 (baculovirus)
T6 sequence (Q02763 23-1124): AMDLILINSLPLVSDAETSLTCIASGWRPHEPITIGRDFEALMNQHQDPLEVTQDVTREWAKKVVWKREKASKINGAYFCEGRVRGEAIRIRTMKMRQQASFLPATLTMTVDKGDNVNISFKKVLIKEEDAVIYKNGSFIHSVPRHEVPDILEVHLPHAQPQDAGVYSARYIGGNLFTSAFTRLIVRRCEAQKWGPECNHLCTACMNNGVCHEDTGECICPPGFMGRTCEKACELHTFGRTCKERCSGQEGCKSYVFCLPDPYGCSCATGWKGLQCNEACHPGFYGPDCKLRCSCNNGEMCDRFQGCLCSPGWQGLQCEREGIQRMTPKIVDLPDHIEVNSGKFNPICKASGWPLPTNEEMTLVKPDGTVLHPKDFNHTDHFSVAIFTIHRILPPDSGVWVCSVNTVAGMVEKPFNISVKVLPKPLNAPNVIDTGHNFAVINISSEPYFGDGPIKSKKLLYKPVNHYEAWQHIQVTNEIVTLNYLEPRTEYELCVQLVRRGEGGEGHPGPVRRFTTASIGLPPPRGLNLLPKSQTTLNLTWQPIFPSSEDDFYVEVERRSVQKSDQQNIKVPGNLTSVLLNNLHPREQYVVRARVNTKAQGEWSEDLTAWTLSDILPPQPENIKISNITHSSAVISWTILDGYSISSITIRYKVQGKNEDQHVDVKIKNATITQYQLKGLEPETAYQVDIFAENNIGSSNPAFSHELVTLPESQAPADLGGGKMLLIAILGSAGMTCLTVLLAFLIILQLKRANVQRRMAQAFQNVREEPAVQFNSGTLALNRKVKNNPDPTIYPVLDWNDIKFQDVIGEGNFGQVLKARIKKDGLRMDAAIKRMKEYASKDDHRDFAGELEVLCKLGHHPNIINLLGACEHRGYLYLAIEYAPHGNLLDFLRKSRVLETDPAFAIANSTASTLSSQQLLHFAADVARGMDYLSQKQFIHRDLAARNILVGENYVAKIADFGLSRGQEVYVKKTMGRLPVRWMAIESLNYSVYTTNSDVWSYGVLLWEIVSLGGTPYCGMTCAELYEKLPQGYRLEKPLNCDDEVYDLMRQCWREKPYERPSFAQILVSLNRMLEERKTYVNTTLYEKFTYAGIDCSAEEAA

T3 sequence (P00533 25-1210): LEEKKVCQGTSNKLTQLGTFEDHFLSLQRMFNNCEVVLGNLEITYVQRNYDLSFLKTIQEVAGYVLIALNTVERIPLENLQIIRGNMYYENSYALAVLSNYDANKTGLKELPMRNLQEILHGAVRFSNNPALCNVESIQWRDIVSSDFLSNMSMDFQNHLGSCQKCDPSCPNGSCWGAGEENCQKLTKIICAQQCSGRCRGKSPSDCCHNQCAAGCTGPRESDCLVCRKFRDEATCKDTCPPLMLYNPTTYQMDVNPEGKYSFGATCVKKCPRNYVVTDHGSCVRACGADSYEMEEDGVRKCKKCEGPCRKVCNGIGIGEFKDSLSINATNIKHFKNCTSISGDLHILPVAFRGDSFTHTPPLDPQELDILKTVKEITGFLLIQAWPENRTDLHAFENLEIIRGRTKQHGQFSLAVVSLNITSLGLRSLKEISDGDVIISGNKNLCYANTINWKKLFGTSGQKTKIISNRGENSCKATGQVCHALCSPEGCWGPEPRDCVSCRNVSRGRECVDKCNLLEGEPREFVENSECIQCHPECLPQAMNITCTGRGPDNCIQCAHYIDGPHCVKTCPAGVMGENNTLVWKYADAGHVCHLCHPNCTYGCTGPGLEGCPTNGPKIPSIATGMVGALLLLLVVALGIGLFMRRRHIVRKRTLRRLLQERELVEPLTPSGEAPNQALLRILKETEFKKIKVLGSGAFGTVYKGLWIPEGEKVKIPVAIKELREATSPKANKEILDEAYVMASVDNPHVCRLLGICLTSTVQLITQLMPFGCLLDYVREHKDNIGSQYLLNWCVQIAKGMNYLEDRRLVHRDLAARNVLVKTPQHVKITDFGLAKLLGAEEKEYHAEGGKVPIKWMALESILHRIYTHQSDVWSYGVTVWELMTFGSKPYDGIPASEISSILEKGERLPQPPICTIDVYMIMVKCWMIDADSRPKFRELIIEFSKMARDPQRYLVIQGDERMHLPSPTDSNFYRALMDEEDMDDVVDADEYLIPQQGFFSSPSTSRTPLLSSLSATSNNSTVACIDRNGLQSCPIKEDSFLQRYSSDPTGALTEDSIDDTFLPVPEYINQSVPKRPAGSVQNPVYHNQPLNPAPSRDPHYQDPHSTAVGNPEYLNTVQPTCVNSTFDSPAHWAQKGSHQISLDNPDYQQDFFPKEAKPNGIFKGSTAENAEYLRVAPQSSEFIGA
T5 sequence (P08581 25-1390): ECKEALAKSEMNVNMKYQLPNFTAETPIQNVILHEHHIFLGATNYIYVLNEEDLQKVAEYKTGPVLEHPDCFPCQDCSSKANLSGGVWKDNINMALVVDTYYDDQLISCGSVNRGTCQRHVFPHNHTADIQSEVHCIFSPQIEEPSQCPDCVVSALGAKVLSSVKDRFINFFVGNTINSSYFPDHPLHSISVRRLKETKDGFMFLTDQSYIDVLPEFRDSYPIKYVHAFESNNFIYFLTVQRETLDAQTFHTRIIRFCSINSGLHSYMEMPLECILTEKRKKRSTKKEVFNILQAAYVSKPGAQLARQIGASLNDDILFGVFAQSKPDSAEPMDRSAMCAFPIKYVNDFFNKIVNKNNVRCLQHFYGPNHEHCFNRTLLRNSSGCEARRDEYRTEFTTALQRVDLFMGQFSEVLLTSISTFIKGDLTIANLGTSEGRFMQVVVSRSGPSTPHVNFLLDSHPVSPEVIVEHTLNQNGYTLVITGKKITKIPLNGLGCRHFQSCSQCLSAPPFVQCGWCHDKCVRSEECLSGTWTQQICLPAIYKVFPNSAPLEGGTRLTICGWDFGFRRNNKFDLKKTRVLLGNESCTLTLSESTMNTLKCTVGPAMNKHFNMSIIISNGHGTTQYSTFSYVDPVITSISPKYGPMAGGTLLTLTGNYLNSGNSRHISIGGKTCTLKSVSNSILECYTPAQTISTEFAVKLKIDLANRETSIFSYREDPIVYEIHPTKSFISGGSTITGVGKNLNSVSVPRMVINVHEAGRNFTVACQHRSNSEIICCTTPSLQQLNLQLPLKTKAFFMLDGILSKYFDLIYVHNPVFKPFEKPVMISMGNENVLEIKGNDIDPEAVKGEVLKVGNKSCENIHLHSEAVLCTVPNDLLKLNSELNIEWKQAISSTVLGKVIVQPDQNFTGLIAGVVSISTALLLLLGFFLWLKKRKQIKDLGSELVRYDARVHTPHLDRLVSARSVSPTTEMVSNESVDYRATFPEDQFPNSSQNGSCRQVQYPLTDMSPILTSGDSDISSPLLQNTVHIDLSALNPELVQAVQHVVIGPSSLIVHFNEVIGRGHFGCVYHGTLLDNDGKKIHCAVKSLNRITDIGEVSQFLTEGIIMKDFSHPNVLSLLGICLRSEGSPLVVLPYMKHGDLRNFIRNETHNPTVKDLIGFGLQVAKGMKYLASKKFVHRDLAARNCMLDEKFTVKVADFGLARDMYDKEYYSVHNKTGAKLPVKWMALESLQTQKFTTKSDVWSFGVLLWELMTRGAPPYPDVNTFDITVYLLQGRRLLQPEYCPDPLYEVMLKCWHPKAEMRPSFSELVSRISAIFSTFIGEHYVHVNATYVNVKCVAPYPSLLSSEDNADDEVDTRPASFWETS
T2 sequence (P11802 whole entry): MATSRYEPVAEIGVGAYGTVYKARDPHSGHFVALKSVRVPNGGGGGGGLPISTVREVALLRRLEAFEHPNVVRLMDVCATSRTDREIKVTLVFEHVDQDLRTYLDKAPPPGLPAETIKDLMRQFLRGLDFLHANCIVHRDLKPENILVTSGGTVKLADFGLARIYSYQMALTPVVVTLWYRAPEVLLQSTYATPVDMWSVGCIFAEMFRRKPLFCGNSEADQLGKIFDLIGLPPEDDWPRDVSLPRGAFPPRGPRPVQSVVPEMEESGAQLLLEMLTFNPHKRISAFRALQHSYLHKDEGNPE
T2 sequence (P24385 whole entry partner): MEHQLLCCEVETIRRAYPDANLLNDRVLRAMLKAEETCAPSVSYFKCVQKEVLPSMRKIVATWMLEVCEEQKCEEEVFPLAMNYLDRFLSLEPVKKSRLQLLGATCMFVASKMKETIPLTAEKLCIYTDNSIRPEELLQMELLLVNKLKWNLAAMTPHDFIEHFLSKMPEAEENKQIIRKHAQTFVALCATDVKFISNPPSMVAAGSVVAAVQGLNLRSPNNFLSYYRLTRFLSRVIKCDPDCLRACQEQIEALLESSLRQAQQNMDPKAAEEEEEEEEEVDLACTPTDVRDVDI

For `O=C1CCCc2cc(-c3ccnc(Nc4ccccc4)n3)ccc2N1` [Compound 2a, 7-(2-Anilinopyrimidin-4-yl)-1,3,4,5-tetrahydro-2H-1-benzazepin-2-one], the IC50 is 60 µM at CDK2/CycA; 19 µM at CDK4/CycD1; over 100 µM against EGF-R; over 100 µM at IGF1-R; over 100 µM at MET; 19 µM at TIE2.
